Results taken from the NIST ThermoML archive (doi:10.1016/j.jct.2014.03.022).

Test: xn = mol fraction of the nth substance listed
Conditions: for surface tension liquid-gas: Wilhelmy plate method; for viscosity: 101.3 kPa, Liquid, Concentric cylinders viscometry

CCCCCCCCCCO [decan-1-ol] + CN(C)C=O
Conditions | surface tension liquid-gas, 298.15 K [mN/m] | surface tension liquid-gas, 303.15 K [mN/m] | surface tension liquid-gas, 308.15 K [mN/m] | surface tension liquid-gas, 313.15 K [mN/m] | viscosity, 298.15 K [mPa·s] | viscosity, 303.15 K [mPa·s] | viscosity, 308.15 K [mPa·s] | viscosity, 313.15 K [mPa·s]
x2 = 0 | 28.35 | 27.29 | 26.23 | 25.17 | 11.83 | 9.754 | 8.135 | 6.842
x2 = 0.2361 | 28.83 | 27.74 | 26.67 | 25.61 | 4.984 | 3.776 | 2.992 | 2.357
x2 = 0.4193 | 29.21 | 28.08 | 26.99 | 25.92 | 2.622 | 1.816 | 1.359 | 0.9811
x2 = 0.5688 | 29.6 | 28.43 | 27.31 | 26.23 | 1.623 | 1.092 | 0.7935 | 0.5801
x2 = 0.6724 | 30.14 | 28.95 | 27.82 | 26.74 | 1.238 | 0.8423 | 0.6257 | 0.47
x2 = 0.7496 | 30.78 | 29.6 | 28.46 | 27.38 | 1.03 | 0.7268 | 0.5631 | 0.443
x2 = 0.8185 | 31.61 | 30.43 | 29.3 | 28.23 | 0.9299 | 0.7011 | 0.5754 | 0.479
x2 = 0.8748 | 32.48 | 31.32 | 30.2 | 29.15 | 0.8732 | 0.7131 | 0.6216 | 0.5385
x2 = 0.923 | 33.41 | 32.27 | 31.15 | 30.12 | 0.8501 | 0.7459 | 0.6802 | 0.6027
x2 = 0.9632 | 34.3 | 33.18 | 32.07 | 31.05 | 0.8317 | 0.7627 | 0.7103 | 0.6468

CCCCCCCCCO [nonan-1-ol] + CN(C)C=O
Conditions | surface tension liquid-gas, 298.15 K [mN/m] | surface tension liquid-gas, 303.15 K [mN/m] | surface tension liquid-gas, 308.15 K [mN/m] | surface tension liquid-gas, 313.15 K [mN/m] | viscosity, 298.15 K [mPa·s] | viscosity, 303.15 K [mPa·s] | viscosity, 308.15 K [mPa·s] | viscosity, 313.15 K [mPa·s]
x2 = 0 | 27.58 | 26.53 | 25.49 | 24.44 | 9.715 | 7.927 | 6.664 | 5.645
x2 = 0.2201 | 28.12 | 27.04 | 25.98 | 24.92 | 4.766 | 3.633 | 2.965 | 2.416
x2 = 0.3969 | 28.54 | 27.42 | 26.33 | 25.27 | 2.715 | 1.932 | 1.532 | 1.196
x2 = 0.5458 | 28.97 | 27.81 | 26.7 | 25.62 | 1.77 | 1.213 | 0.9531 | 0.7287
x2 = 0.6515 | 29.58 | 28.39 | 27.27 | 26.18 | 1.373 | 0.9494 | 0.7597 | 0.5913
x2 = 0.7321 | 30.3 | 29.11 | 27.98 | 26.9 | 1.156 | 0.8443 | 0.6817 | 0.5692
x2 = 0.8042 | 31.21 | 30.03 | 28.9 | 27.83 | 1.022 | 0.7978 | 0.6695 | 0.5762
x2 = 0.8644 | 32.19 | 31.02 | 29.9 | 28.85 | 0.9434 | 0.7834 | 0.6881 | 0.6071
x2 = 0.9168 | 33.23 | 32.08 | 30.97 | 29.93 | 0.8898 | 0.7837 | 0.7189 | 0.6468
x2 = 0.9596 | 34.2 | 33.07 | 31.97 | 30.95 | 0.8529 | 0.7764 | 0.727 | 0.6663

CCCCCCCCO [octan-1-ol] + CN(C)C=O
Conditions | surface tension liquid-gas, 298.15 K [mN/m] | surface tension liquid-gas, 303.15 K [mN/m] | surface tension liquid-gas, 308.15 K [mN/m] | surface tension liquid-gas, 313.15 K [mN/m] | viscosity, 298.15 K [mPa·s] | viscosity, 303.15 K [mPa·s] | viscosity, 308.15 K [mPa·s] | viscosity, 313.15 K [mPa·s]
x2 = 0 | 27.47 | 26.42 | 25.41 | 24.38 | 7.661 | 6.402 | 5.425 | 4.628
x2 = 0.2198 | 28.07 | 26.98 | 25.95 | 24.91 | 4.082 | 3.243 | 2.678 | 2.2
x2 = 0.3728 | 28.37 | 27.25 | 26.18 | 25.13 | 2.636 | 2.012 | 1.646 | 1.35
x2 = 0.5208 | 28.77 | 27.6 | 26.5 | 25.43 | 1.794 | 1.355 | 1.106 | 0.9143
x2 = 0.6277 | 29.36 | 28.17 | 27.05 | 25.97 | 1.41 | 1.089 | 0.8992 | 0.7523
x2 = 0.7118 | 30.1 | 28.9 | 27.77 | 26.7 | 1.193 | 0.9412 | 0.804 | 0.7006
x2 = 0.7877 | 31.04 | 29.85 | 28.72 | 27.66 | 1.052 | 0.8817 | 0.765 | 0.6768
x2 = 0.8519 | 32.05 | 30.88 | 29.76 | 28.7 | 0.9693 | 0.8339 | 0.7497 | 0.6694
x2 = 0.9085 | 33.13 | 31.98 | 30.87 | 29.84 | 0.9042 | 0.8153 | 0.7484 | 0.6782
x2 = 0.9556 | 34.15 | 33.03 | 31.92 | 30.9 | 0.8603 | 0.7921 | 0.7395 | 0.6802
